Reference: patent US20210113568A1, “PREVENTIVE AND/OR THERAPEUTIC AGENT FOR AUTOIMMUNE DISEASE COMPRISING COMPOUND HAVING Btk INHIBITORY ACTIVITY AS ACTIVE INGREDIENT” (ONO PHARMACEUTICAL CO., LTD., priority 2018, published 2021)

system: human neutrophils; test: Measurement of activation of human neutrophils (NETs formation, SYTOX Green fluorescence, immune complex stimulation); format: cell-based; conditions: Neutrophil, immobilized HSA/anti-HSA immune complex, 1 hour preincubation, 4 hours at 37° C.
Description: Human serum albumin (HSA) (Sigma) was immobilized on a 96-well plate and anti-HSA antibody (Sigma) was added to form an immune complex. Blocking was performed with 10% fetal bovine serum (FBS), and the plate was then used for neutrophil activation.
Various compounds having a Btk inhibitory activity were used as the test compounds. The test compound was dissolved in DMSO and dilution with RPMI 1640 culture medium (10% FBS, contained 1% penicillin/streptomycin) was then performed to prepare a test compound solution with a concentration 11-times that of the final concentration. 180 μL of a culture medium-diluted human neutrophil suspension was added to 20 μL of the 11×-concentration test compound solution, or the medium (1.1% DMSO), and incubation was performed for 1 hour at room temperature.
20 μL of a 50 μM SYTOX Green solution (Thermo Fisher Scientific Inc.) was then added to the plate bearing the immobilized immune complex; 180 μL (1×10^5 cells/well) of the test compound-treated neutrophil suspension was added; and incubation was carried out for 4 hours at 37° C. and 5% CO2. The relative fluorescence units of the SYTOX Green bound to NETs from the neutrophils were measured using a microplate reader (Molecular Devices) and conditions of an excitation wavelength of 475 nm and a fluorescence wavelength of 523 nm. The percent inhibition (%) for the test compound was calculated using the formula given below. The percent inhibition (%) was graphically plotted using Prism (ver. 5.04, GraphPad Software) and the IC50 value was determined.
A: relative fluorescence units when the test compound was added B: relative fluorescence units at the time of stimulation C: relative fluorescence units without stimulation

Row | SMILES | IC50
1 | Cc1c(-c2c(F)cc(C(N)=O)c3[nH]c4c(c23)CC[C@H](C(C)(C)O)C4)cccc1-n1c(=O)c2cccc(F)c2n(C)c1=O [BMS-986142] | 44 nM
2 | CC#CC(=O)N1CCC[C@H]1c1nc(-c2ccc(C(=O)Nc3ccccn3)cc2)c2c(N)nccn12 [acalabrutinib] | 84 nM
3 | C[C@H]1CN(C2COC2)CCN1c1ccc(Nc2cc(-c3ccnc(N4CCn5c(cc6c5CC(C)(C)C6)C4=O)c3CO)cn(C)c2=O)nc1 [fenebrutinib] | 62 nM
4 | C=CC(=O)N1CCC[C@@H](n2nc(-c3ccc(Oc4ccccc4)cc3)c3c(N)ncnc32)C1 [ibrutinib] | 3.6 nM
5 | CC#CC(=O)N1CC[C@@H](n2c(=O)n(-c3ccc(Oc4ccccc4)cc3)c3c(N)ncnc32)C1 [tirabrutinib, 6-amino-9-[(3R)-1-(buta-2-ynoyl)pyrrolidin-3-yl]-7-(4-phenoxyphenyl)-7,9-dihydro-8H-purin-8-one] | 22 nM

same assay, conditions: Neutrophil, immobilized HSA/anti-HSA immune complex, 1 hour preincubation, 4 hours at 37° C., unit given as M

Row | SMILES | IC50
6 | C=CC(=O)N1CCC(CNc2ncnc(N)c2-c2ccc(Oc3ccccc3)cc2)CC1 [evobrutinib] | 57 nM
